These results are taken from patent publication USRE40912E1, “Process for isolation, purification, and recrystallization of lutein from saponified marigold oleoresin and uses thereof” (The Catholic University of America, priority 1994, dated 2009).

The nature of series [1]: human study of oral lutein dose, plasma carotenoid profile. The class given is in vivo. The conditions noted are these: oral 10 mg lutein dose as suspension in olive oil (ethanol, α-tocopherol, polysorbate 80), spread on a bagel. The method, then: Carotenoids are considered among the fat soluble nutrients and are usually associated with the lipoprotein fractions of human blood. […] In the following, the procedure employed for the preparation of a small batch (100 dose, each 10 mg) of purified lutein is described.
Purified lutein from marigold flowers extract (1 g) was added to absolute alcohol (75 mL). To this solution α-tocopherol (50 mg) and food grade polysorbate 80 (an emulsifier, 4 g) was added and the mixture was sonicated for 10 minutes. The addition of α-tocopherol (0.01% by weight) was to stabilize lutein and prevent this compound from possible oxidation during long term storage. The above suspension was then mixed with 350 g of light and mild olive oil (saturated fat/polyunsaturated fat=2/1) and the mixture was sonicated for 5 minutes. […] 7 mL aliquots of this suspension was shown by spectrophotometric analysis to contain 10 mg of lutein. At various intervals, the stability and the purity of lutein suspension in the olive oil was determined by spectrophotometric and HPLC analysis. […] In one study each 7 mL aliquot of the olive oil (containing 10 mg lutein) was spread on a bagel prior to ingestion. Alternatively, this small volume of oil can be readily taken with other foods. […]

Series [2] is described as follows: stability of lutein suspension in olive oil by spectrophotometric and HPLC analysis. The class given is physicochemical. The conditions noted are these: suspension in olive oil with α-tocopherol and polysorbate 80, stored under nitrogen in a refrigerator. The method, then: Purified lutein from marigold flowers extract (1 g) was added to absolute alcohol (75 mL). To this solution α-tocopherol (50 mg) and food grade polysorbate 80 (an emulsifier, 4 g) was added and the mixture was sonicated for 10 minutes. The addition of α-tocopherol (0.01% by weight) was to stabilize lutein and prevent this compound from possible oxidation during long term storage. The above suspension was then mixed with 350 g of light and mild olive oil (saturated fat/polyunsaturated fat=2/1) and the mixture was sonicated for 5 minutes. […] 7 mL aliquots of this suspension was shown by spectrophotometric analysis to contain 10 mg of lutein. At various intervals, the stability and the purity of lutein suspension in the olive oil was determined by spectrophotometric and HPLC analysis. […] In one study each 7 mL aliquot of the olive oil (containing 10 mg lutein) was spread on a bagel prior to ingestion. Alternatively, this small volume of oil can be readily taken with other foods. Although this preparation of lutein dose is appropriate for conducting human studies with a limited number of subjects, other preparations of this compound into tablets or capsules can be accomplished. The formulation of β-carotene into tablets and capsules which has been developed by Hoffmann-La Roche Inc. (Nutley, N.J.), may also be found suitable for lutein with some minor modifications.

In the case of `CC1=C[C@H](O)CC(C)(C)[C@H]1/C=C/C(C)=C/C=C/C(C)=C/C=C/C=C(C)/C=C/C=C(C)/C=C/C1=C(C)C[C@@H](O)CC1(C)C` [lutein, (3R,3′R,6′R)-β,ε-Carotene-3,3′-diol], the “absorption of lutein by the subjects as determined from analysis of their plasma carotenoid profile” value in series [1] is listed as “excellent absorption”. In series [2], the “stability of lutein suspension in olive oil” value was “stable for up to one month”.
